Experimental data from patent US20230277669A1, “USES OF UROLITHINS” (Amazentis SA, priority 2022, published 2023).

Test system: CD3^+ T cells
Assay: qPCR analysis of in vitro activated CD3+ cells
Assay type: cell-based
Protocol: (FIG. 4A) Scheme of CD3+ T-cell activation and analysis for various timepoints in order to investigate mitophagy induction in vitro. (FIG. 4B) Analysis of mitochondrial membrane potential within CD8+ T cells, with TMRM^lo representing cells with low mitochondrial membrane potential. Analysis was performed six hours after stimulation with aCD/aCD28 stimulation beads at the presence of the indicated treatments. N=4 per group, *p < 0.05 by Mann Whitney U test. One of two independent experiments are shown. (FIG. 4C) Representative flow histogram and quantification of lysosome formation in CD8+ cells six hours after in vitro stimulation. MFI shown relative to DMSO controls, n=4. Data are normalised mean ± SD, statistical analysis by two-sided t-test. One out of two independent experiments are shown. (FIG. 4D) Mitotracker Red staining of in vitro stimulated CD8+ cells after 24 hours of Urolithin A (UA25 n=6; UA50 n=6) or vehicle control treatment (DMSO: n=4). […] (FIG. 4H) CD8+ cells from Pink1^-/- mice display deficient mitophagy upon UA treatment in vitro: Lysosome formation in CD8+ of Pink1^-/- mice as assessed by Lysotracker staining 6h post stimulation at the presence of UA or DMSO (n=4). […] Quantification of TCF1^hi cells among CD8. (FIG. 4N) Quantification of PD1^hi cells among CD8. (FIG. 4O) Quantification of and Tim3^hi cells among CD8. […]

In the case of O=c1oc2cc(O)ccc2c2ccc(O)cc12 [Urolithin A], the “autophagy genes and Pink1 (qPCR)” value (24 h after activation) is reported as “significant upregulation” and the “transcription of Wnt target genes (qPCR)” value (24 h after stimulation) is reported as “increased transcription”.
